Source: ChEMBL document CHEMBL5236652, “Neuritogenic steroid glycosides from crown-of-thorns starfish: Possible involvement of p38 mitogen-activated protein kinase and attenuation of cognitive impairment in senescence-accelerated mice (SAMP8) by peripheral administration” (Bioorg Med Chem, 2023)
Calls of active or inactive are those of the source. No cut-off for these calls is given here.

How the values were obtained:
PC-12 [1] = assay: Neuritogenic activity in rat PC-12 cells assessed as induction of neurite outgrowth at 40 uM incubated for 6 days by microscopic analysis; assay type: functional
PC-12 [2] = assay: Neuritogenic activity in rat PC-12 cells assessed as induction of neurite outgrowth at 10 to 40 uM incubated for 6 days by microscopic analysis; assay type: functional, cell-based; conditions: dose 10-40 µM, time 6.0 day
PC-12 [3] = assay: Neuritogenic activity in rat PC-12 cells assessed as induction of neurite outgrowth at 40 uM incubated for 1 to 6 days by microscopic analysis; assay type: functional, cell-based; conditions: time 1-6 day, TDE = time-dependent effect
PC-12 [4] = assay: Neuritogenic activity in rat PC-12 cells assessed as inhibition of neurite outgrowth at 40 uM incubated for 6 days in presence of K252a by microscopic analysis; assay type: functional, cell-based; conditions: time 6.0 day
PC-12 [5] = assay: Neuritogenic activity in rat PC-12 cells overexpressing TrKA assessed as inhibition of neurite outgrowth at 40 uM incubated for 6 days by microscopic analysis; assay type: functional, cell-based; conditions: time 6.0 day
PC-12 [6] = assay: Neuritogenic activity in rat PC-12 cells assessed as effect on TrkA phosphorylation at 40 uM incubated for 4 hrs by Western blot analysis; assay type: functional, cell-based
PC-12 [7] = assay: Neuritogenic activity in rat PC-12 cells assessed as inhibition of neurite outgrowth at 1 uM incubated for 6 days in presence of SB203580 by microscopic analysis; assay type: functional, cell-based; conditions: time 6.0 day
PC-12 [8] = assay: Neuritogenic activity in rat PC-12 cells assessed as inhibition of neurite outgrowth at 40 uM incubated for 6 days in presence of PD98059 by microscopic analysis; assay type: functional, cell-based; conditions: time 6.0 day
PC-12 [9] = assay: Neuritogenic activity in rat PC-12 cells assessed as decrease in ERK phosphorylation at 40 uM and incubated for 1 to 2 hrs by Western blot analysis; assay type: functional, cell-based; conditions: time 1-2 hrs
PC-12 [10] = assay: Neuritogenic activity in rat PC-12 cells assessed as increase in p38 phosphorylation at 40 uM and measured upto 24 hrs by Western blot analysis; assay type: functional, cell-based
PC-12 [11] = assay: Neuritogenic activity in rat PC-12 cells assessed as inhibition of neurite outgrowth at 40 uM incubated for 6 days in presence of […] by microscopic analysis; assay type: functional, cell-based; conditions: time 6.0 day
PC-12 [12] = assay: Neuritogenic activity in rat PC-12 cells assessed as effect on Ras activation at 40 uM incubated for 2 hrs by Western blot analysis; assay type: functional, cell-based
PC-12 [13] = assay: Neuritogenic activity in rat PC-12 cells assessed as effect on Cdc42 activation at 40 uM incubated for 8 to 12 hrs by Western blot analysis; assay type: functional, cell-based; conditions: time 8-12 hrs
PC-12 [14] = assay: Cytotoxicity against rat PC-12 cells assessed as reduction in cell viability upto 40 uM; assay type: toxicity, cell-based; conditions: pc-12, 40 µM
[15] = Toxicity in ICR mouse assessed as effect on body weight at 1 to 10 mg/kg, sc for 14 days; assay type: organism-based; conditions: in vivo, 336 h, dose 1-10 mg/kg, time 14 day
Mus musculus [16] = assay: Cognitive enhancing effect in SAMP8 mouse assessed as longer exploration time at 10 mg/kg, sc for 2 weeks by Novel object recognition test; assay type: functional, organism-based
Mus musculus [17] = assay: Cognitive enhancing effect in SAMP8 mouse assessed as improvement of spontaneous alternation behavior by analyzing entry to different arm at 1 to 10 mg/kg, sc for 2 weeks by Y-maze test; assay type: functional, organism-based; conditions: dose 1-10 mg/kg
Mus musculus [18] = assay: Cognitive enhancing effect in aged ICR mouse assessed as longer exploration time at 10 mg/kg, sc for 2 weeks by novel object recognition test; assay type: functional, organism-based
Mus musculus [19] = assay: Cognitive enhancing effect in SAMP8 mouse assessed as effect on locomotion by analyzing entry to different arm at 1 to 10 mg/kg, sc for 2 weeks by Y-maze test; assay type: functional, organism-based; conditions: dose 1-10 mg/kg
Mus musculus [20] = assay: Cognitive enhancing effect in aged ICR mouse assessed as improvement of spontaneous alternation behavior by analyzing entry to different arm at 10 mg/kg, sc for 2 weeks by Y-maze test; assay type: functional, organism-based
[21] = Drug uptake in ICR mouse blood at 10 mg/kg,sc and measured upto 120 mins by LC-MS analysis; assay type: ADME, organism-based; conditions: read-out: Drug uptake
[22] = Drug uptake in ICR mouse brain at 10 mg/kg,sc and measured upto 120 mins by LC-MS analysis; assay type: ADME, organism-based; conditions: read-out: Drug uptake
[23] = Drug uptake in ICR mouse blood at 10 mg/kg,sc and measured at 60 mins by LC-MS analysis; assay type: ADME, organism-based; conditions: read-out: Drug uptake
[24] = Drug uptake in ICR mouse brain at 10 mg/kg,sc and measured at 60 mins by LC-MS analysis; assay type: ADME, organism-based; conditions: read-out: Drug uptake

**Q.** With `CO[C@H]1[C@H](O[C@@H]2C=C3[C@H](O)C[C@@]4(O)[C@@H]5[C@@H](O)[C@H](O)[C@H]([C@H](C)CC[C@H](CO[C@@H]6OC[C@@H](O)[C@H](O)[C@H]6O)C(C)C)[C@@]5(C)CC[C@@H]4[C@@]3(C)CC2)OC[C@@H](O)[C@@H]1O` as the compound, how does the Activity (PC-12 [1]; time 6 day) read?
**A.** The Activity was 43%.

**Q.** And the Activity (PC-12 [2])?
**A.** Its Activity is “Dose-Dependent Effect”.

**Q.** And the Activity (PC-12 [3])?
**A.** Its Activity is “Tde”.

**Q.** And the Activity (PC-12 [4])?
**A.** Its Activity is “inactive”.

**Q.** What about the Activity (PC-12 [5]) of the same compound?
**A.** Its Activity is “inactive”.

**Q.** What about the Activity (PC-12 [6]) of the same compound?
**A.** Its Activity is “inactive”.

**Q.** What about the Activity (PC-12 [7]) of the same compound?
**A.** The Activity was “inactive”.

**Q.** And the Activity (PC-12 [8])?
**A.** Its Activity is “inactive”.

**Q.** What about the Activity (PC-12 [9]) of the same compound?
**A.** The Activity was “Active”.

**Q.** And the Activity (PC-12 [10])?
**A.** Its Activity is “Active”.

**Q.** What about the Activity (PC-12 [11]) of the same compound?
**A.** Its Activity is “inactive”.

**Q.** And the Activity (PC-12 [12])?
**A.** Its Activity is “inactive”.

**Q.** What about the Activity (PC-12 [13]) of the same compound?
**A.** The Activity was “Active”.

**Q.** And the Activity (PC-12 [14])?
**A.** The Activity was “Non-Toxic”.

**Q.** And the Activity [15]?
**A.** The Activity was “Non-Toxic”.

**Q.** What about the Activity (Mus musculus [16]) of the same compound?
**A.** Its Activity is “Active”.

**Q.** What about the Activity (Mus musculus [17]) of the same compound?
**A.** The Activity was “Active”.

**Q.** And the Activity (Mus musculus [18])?
**A.** Its Activity is “Active”.

**Q.** What about the Activity (Mus musculus [19]) of the same compound?
**A.** The Activity was “inactive”.

**Q.** What about the Activity (Mus musculus [20]) of the same compound?
**A.** The Activity was “Active”.

**Q.** What about the concentration at 2 h [21] of the same compound?
**A.** The concentration at 2 h was 7.7 ng/mL.

**Q.** And the concentration at 2 h [22]?
**A.** Its concentration at 2 h is 5 ng/g.

**Q.** What about the concentration at 1 h [23] of the same compound?
**A.** Its concentration at 1 h is 2000 ng/mL.

**Q.** What about the concentration at 1 h [24] of the same compound?
**A.** The concentration at 1 h was 30 ng/g.

**Q.** With `CO[C@H]1[C@H](O[C@@H]2C=C3[C@H](O)C[C@@]4(O)[C@@H]5[C@@H](O)[C@H](O)[C@H]([C@H](C)CC[C@H](CO)C(C)C)[C@@]5(C)CC[C@@H]4[C@@]3(C)CC2)OC[C@@H](O)[C@@H]1O` as the compound, how does the Activity (PC-12 [1]; time 6.0 day) read?
**A.** Its Activity is “inactive”.

**Q.** For `CO[C@@H]1[C@@H](O)[C@H](OC[C@@H](CC[C@@H](C)[C@H]2[C@@H](O)[C@H](O)[C@@H]3[C@]2(C)CC[C@H]2[C@@]3(O)C[C@@H](O)C3=C[C@@H](O[C@@H]4OC[C@@H](O)[C@H](O)[C@H]4OC)CC[C@@]32C)C(C)C)OC[C@H]1O`, which Activity (PC-12 [1]; time 6 day) is on record?
**A.** Its Activity is 43%.
